Measurements taken from patent US9981972B2, “N-hydroxy bicyclic hydantoin carbamates as tools for identification of serine hydrolase targets” (ABIDE THERAPEUTICS, INC., priority 2014, dated 2018).
“Also recorded” adds a separate entry of the source.

Experiments:
PPT1 = target: T1, PPT1 (Homo sapiens, UniProt P50897); test: In situ inhibition of hPPT1 in transfected HEK293T cells, competitive ABPP with Compound 39 probe; assay type: cell-based; design: expressed in transfected cells; host or cells: HEK293T; details: 2 μM, hPPT1-transfected HEK293T cells, in situ
T1 sequence (P50897 28-306): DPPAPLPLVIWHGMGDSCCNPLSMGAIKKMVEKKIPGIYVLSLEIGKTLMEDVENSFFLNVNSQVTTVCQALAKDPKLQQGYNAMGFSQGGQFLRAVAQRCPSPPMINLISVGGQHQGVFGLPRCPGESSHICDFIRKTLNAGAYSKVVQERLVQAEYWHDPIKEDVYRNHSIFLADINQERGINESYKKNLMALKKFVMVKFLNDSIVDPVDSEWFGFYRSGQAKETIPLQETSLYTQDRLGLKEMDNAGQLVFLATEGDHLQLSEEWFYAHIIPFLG
Protocol: HEK293T cells were seeded at 2×10^5 per well on 6 well plates and grown for 48 h. They were then transfected with mABHD3 (pCMV-Sport6), hABHD4 (pcDNA3.1/myc-his), hPPT1 (pCMV6-XL5), or hPPT1 S115A (pCMV6-XL5), by incubating 0.5 μg of DNA with 3 μL of PEI MAX (1 mg/mL, Polysciences, Inc) in serum-free DMEM for 30 min, then adding them to cells. After 48 h cells were either treated with compound in situ, as described above, or harvested for in vitro studies. The […] PPT1 mutation was introduced using QuikChange II Site Directed Mutagenesis Kit (Agilent) with the following primers: […]
In situ inhibitor treatments of human cell lines were performed as described previously (Hsu et al., J Med Chem 56, 8270-8279, 2012). Briefly, PC3 or transfected HEK293T cells were grown to confluency in serum-containing media (RPMI or DMEM, respectively). The culture media was then removed and replaced with fresh media containing DMSO or inhibitor at the desired concentration and incubated for 4 hours in a tissue culture incubator (37° C., 5% CO2). Cells were then washed with PBS, harvested, washed with PBS once more, and lysed with a probe sonicator.
This possibility was explored by treating HEK293T cells transfected with human PPT1 (hPPT1) with Compound 37 (5 μM, 4 h pre-treatment) or DMSO followed by cell lysis and treatment with Compound 39 (5 μM, 1 h). A strong, but diffuse Compound 37-sensitive, Compound 39-labeled protein band was detected by gel-based ABPP in hPPT1-transfected, but not mock-transfected cell lysates (see FIG. 14), and this diffuse signal was compressed to a tight, faster-migrating band matching the predicted molecular weight of PPT1 following treatment with the glycosidase PNGaseF (see FIG. 14). Western blotting with an anti-PPT1 antibody confirmed a similar migration pattern for hPPT1 protein in transfected cell lysates (see FIG. 14, bottom panel).
A structurally diverse panel of N-hydroxy bicyclic hydantoin carbamates were assayed at 2 or 0.2 μM for in situ inhibition of hPPT1 in transfected HEK293T cells.

human LYPLA1 = target: T2, human LYPLA1 (Homo sapiens, UniProt O75608); test: IC50 by gel-based competitive ABPP in vitro, soluble HeLa cell proteome; assay type: biochemical; details: human LYPLA isoform, three replicates; Table 2 prints no unit, nM; read-out: LYPLA1 IC50
T2 construct: endogenous human LYPLA1/2 in a HeLa soluble proteome; endogenous in cells; host or cells: HeLa (soluble proteome in vitro; cultured cells in situ)
Protocol: (§1) Assay Overview: The purpose of this assay was to determine IC50 values of powder samples of test compounds for enzyme of interest activity, and anti-targets in a complex proteomic lysate using a gel-based competitive ABPP assay. In this assay, a complex proteome was incubated with test compound followed by reaction with FP-Rh and SDS-PAGE analysis as described above.
(§2) Protocol Summary: Soluble HeLa cell proteome (50 μL reaction volume, 1 mg/mL in DPBS) or mouse brain membrane proteome (50 μL reaction volume, 1 mg/mL in DPBS) was treated with varying concentrations of test compound (1 μL of a 50× stock in DMSO) for 30 minutes at 37° C. FP-Rh (1 μL of 50× stock in DMSO) was added to a final concentration of 2 μM. The reaction was incubated for 30 minutes at 25° C., quenched with 16 μL 4×SDS-PAGE loading buffer (reducing), separated by SDS-PAGE and visualized by in-gel fluorescent scanning. The percentage activity remaining was determined by measuring the integrated optical density of the enzymes of interest, and anti-target bands relative to a DMSO-only (no compound) control. IC50 values were determined from dose-response curves from three replicates at each inhibitor concentration: 1, 10, 100, 1000, 10000 nM and 0.01, 0.1, 1, 10, 100, 1000, 10000, 50000, and 100000 nM.

human LYPLA2 = target: T3, human LYPLA2 (Homo sapiens, UniProt O95372); test: as above; assay type: biochemical; details: human LYPLA isoform, three replicates; Table 2 prints no unit, nM; read-out: LYPLA2 IC50
T3 construct: endogenous human LYPLA1/2 in a HeLa soluble proteome; endogenous in cells; host or cells: HeLa (soluble proteome in vitro; cultured cells in situ)
Protocol: as §1, §2

LYPLA2 = target: T4, LYPLA2 (Mus musculus, UniProt Q9WTL7); test: Gel-based competitive ABPP in vitro, mouse brain membrane proteome; assay type: biochemical; details: 30 min, one replicate; for inhibition at 0.1 µM: 0.1 μM compound, read-out: LYPLA2 % INH 0.1 μM; for inhibition at 1 µM: 1 μM compound, read-out: LYPLA2 % INH 1 μM; for inhibition at 10 µM: 10 μM compound, read-out: LYPLA2 % INH 10 μM; for inhibition at 100 µM: 100 μM compound, read-out: LYPLA2 % INH 100 μM
T4 construct: a complex proteome endogenously expressing LYPLA1/2 was incubated with test compound; from tissue; host or cells: mouse brain, membrane fraction
Protocol: (§3) Assay Overview: The purpose of this assay was to determine whether test compounds can inhibit LYPLA1 and LYPLA2 in a complex proteomic lysate and to assess anti-target inhibition using a competitive activity-based proteomic profiling (ABPP) assay. In this assay, a complex proteome endogenously expressing LYPLA1/2 was incubated with test compound followed by reaction with a rhodamine-conjugated fluorophosphonate (FP-Rh) serine-hydrolase specific activity-based probe. The reaction products were separated by SDS-PAGE and visualized in-gel using a flatbed fluorescence scanner. The percentage activity remaining was determined by measuring the integrated optical density of the bands. […] Percent inhibition was calculated relative to a DMSO (no compound) control.
(§4) Protocol Summary: Mouse brain membrane proteome (50 μL reaction volume, 1 mg/mL in DPBS) was treated with 0.1-100 μM test compound (1 μL of a 50× stock in DMSO) for 30 minutes at 37° C. FP-Rh (1 μL of 50× stock in DMSO, Thermo #88318) was added to a final concentration of 2 μM. The reactions were incubated for 30 minutes at 25° C., quenched with 16 μL 4×SDS-PAGE loading buffer (reducing), separated by SDS-PAGE and visualized by in-gel fluorescent scanning. The percentage activity remaining was determined by measuring the integrated optical density of the bands relative to a DMSO-only (no compound) control. Assay Cutoff: Compounds with ≥50% inhibition of targets at 1 μM test compound concentration were considered active.
(§5) N-Hydroxy bicyclic hydantoin carbamates (Compounds 1-20) listed in Table 1 were subjected to gel-based competitive ABPP screening to assess SH reactivity against more than 20 FP-sensitive SHs visible by 1D SDS-PAGE separation and fluorescent detection in the mouse brain proteome (see FIG. 1). […] Compound treatment ([…], 30 minutes) was followed by labeling with SH-specific ABPP probe FP-Rh (2 μM, 30 minutes), 1D-SDS-PAGE, and in-gel fluorescent visualization of FP-labeled proteins. Assignment of LYPLA1/2 bands was based on correlation of molecular weights, expression and inhibition profiles with LC-MS/MS data and recombinant enzyme expression. Proteins were listed as anti-targets if at least 50% inhibition was observed as quantified relative to the DMSO control.
(§6) Compounds 1-20 were subjected to gel-based competitive ABPP profiling to assess potency and selectivity against several dozen FP-sensitive SHs in the mouse brain membrane proteome, which endogenously expresses LYPLA1 and LYPLA2, as well a diversity of potential SH anti-targets. Compounds were tested at 100 μM, 10 μM, 1 μM, and/or 0.1 μM compound concentration.

LYPLA1 = target: T5, LYPLA1 (Mus musculus, UniProt P97823); test: as above; assay type: biochemical; details: 30 min, one replicate; for inhibition at 0.1 µM: 0.1 μM compound, read-out: LYPLA1 % INH 0.1 μM; for inhibition at 1 µM: 1 μM compound, read-out: LYPLA1 % INH 1 μM; for inhibition at 10 µM: 10 μM compound, read-out: LYPLA1 % INH 10 μM; for inhibition at 100 µM: 100 μM compound, read-out: LYPLA1 % INH 100 μM
T5 construct: a complex proteome endogenously expressing LYPLA1/2 was incubated with test compound; from tissue; host or cells: mouse brain, membrane fraction
Protocol: as §3, §4, §5, §6

[1] = system: FP-sensitive SHs in the mouse brain membrane proteome; test: Gel-based competitive ABPP in vitro, mouse brain membrane proteome, anti-targets; assay type: biochemical; details: for Anti-target(s) 0.1 μM: SHs with at least 50% inhibition at 0.1 μM compound; for Anti-target(s) 1 μM: SHs with at least 50% inhibition at 1 μM compound; for Anti-target(s) 10 μM: SHs with at least 50% inhibition at 10 μM compound; for Anti-target(s) 100 μM: SHs with at least 50% inhibition at 100 μM compound
Protocol: as §3, §4, §5, §6

T4 sequence (Q9WTL7 whole entry): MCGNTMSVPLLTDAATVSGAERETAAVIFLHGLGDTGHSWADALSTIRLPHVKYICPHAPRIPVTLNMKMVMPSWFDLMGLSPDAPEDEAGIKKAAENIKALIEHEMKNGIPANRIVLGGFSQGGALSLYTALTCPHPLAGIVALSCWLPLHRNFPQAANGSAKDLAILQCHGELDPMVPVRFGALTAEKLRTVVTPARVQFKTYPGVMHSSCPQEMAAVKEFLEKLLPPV
T3 sequence (O95372 whole entry, canonical isoform): as the sequence (Q9WTL7 whole entry) above, with N154A, T193S counted along it
T5 sequence (P97823 whole entry): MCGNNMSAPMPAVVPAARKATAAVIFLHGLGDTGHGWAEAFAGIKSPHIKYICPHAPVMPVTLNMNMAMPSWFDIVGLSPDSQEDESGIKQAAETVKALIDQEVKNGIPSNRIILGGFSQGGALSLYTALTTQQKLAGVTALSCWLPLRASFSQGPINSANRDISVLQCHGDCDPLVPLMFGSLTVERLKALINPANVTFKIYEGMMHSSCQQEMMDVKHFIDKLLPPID
T2 sequence (O75608 whole entry, canonical isoform): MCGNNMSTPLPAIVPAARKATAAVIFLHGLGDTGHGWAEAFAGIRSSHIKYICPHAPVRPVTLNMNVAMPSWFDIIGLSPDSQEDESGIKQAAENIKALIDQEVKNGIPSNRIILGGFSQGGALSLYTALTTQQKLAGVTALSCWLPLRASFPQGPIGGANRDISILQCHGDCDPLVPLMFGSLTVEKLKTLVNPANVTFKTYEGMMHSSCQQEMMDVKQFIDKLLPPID

Row | IC50 (human LYPLA1) | IC50 (human LYPLA2) | inhibition at 0.1 µM (LYPLA2) | inhibition at 1 µM (LYPLA2) | inhibition at 10 µM (LYPLA2) | inhibition at 100 µM (LYPLA2) | inhibition at 0.1 µM (LYPLA1) | inhibition at 1 µM (LYPLA1) | inhibition at 10 µM (LYPLA1) | inhibition at 100 µM (LYPLA1) | Compound | hPPT1 (in situ), % @ 2 μM (PPT1) | Anti-target(s) 0.1 μM [1] | Anti-target(s) 1 μM [1] | Anti-target(s) 10 μM [1] | Anti-target(s) 100 μM [1]
1 |  |  |  |  |  |  |  |  |  |  | COc1ccc(N2CCN(C(=O)ON3C(=O)C4CN(CC5CCN(C(=O)OC(C)(C)C)CC5)CCN4C3=O)CC2)cc1 (stereo not shown) [Compound 24, 7-((1-(tert-butoxycarbonyl)piperidin-4-yl)methyl)-1,3-dioxohexahydroimidazo[1,5-a]pyrazin-2(3H)-yl 4-(4-methoxyphenyl)piperazine-1-carboxylate] | 100% @ 2 μM |  |  |  | 
2 | 92 nM | 217 nM | 80% | 100% | 100% | 100% | 80% | 100% | 100% | 100% | CC(C)(C)CC(=O)N1CCN2C(=O)N(OC(=O)N3CCC(CCc4ccc(Cl)cc4)CC3)C(=O)C2C1 (stereo not shown) [Compound 4, 7-(3,3-dimethylbutanoyl)-1,3-dioxohexahydroimidazo[1,5-a]pyrazin-2(3H)-yl 4-(4-chlorophenethyl)piperidine-1-carboxylate] |  | ABHD6 | FAAH,; also recorded: ABHD6 | FAAH,; also recorded: ABHD12,; also recorded: MAGL,; also recorded: ABHD6 | FAAH,; also recorded: ABHD12,; also recorded: ABHD4,; also recorded: MAGL,; also recorded: ABHD6
3 | 225 nM | 384 nM | 50% | 100% | 100% | 100% | 50% | 100% | 100% | 100% | O=C(ON1C(=O)C2CN(C(=O)N3CCCC3)CCN2C1=O)N1CCC(CCc2ccc(Cl)cc2)CC1 (stereo not shown) [Compound 3, 1,3-dioxo-7-(pyrrolidine-1-carbonyl)hexahydroimidazo[1,5-a]pyrazin-2(3H)-yl 4-(4-chlorophenethyl)piperidine-1-carboxylate] |  | ABHD6 | FAAH,; also recorded: ABHD6 | FAAH,; also recorded: ABHD6 | FAAH,; also recorded: ABHD12,; also recorded: ABHD4,; also recorded: MAGL,; also recorded: ABHD6
4 | 306 nM | 726 nM | 0% | 80% | 95% | 100% | 0% | 80% | 95% | 100% | O=C(ON1C(=O)C2CN(C(=O)c3ccc(Br)cc3)CCN2C1=O)N1CCC(CCc2ccc(Cl)cc2)CC1 (stereo not shown) [Compound 7, 7-(4-bromobenzoyl)-1,3-dioxohexahydroimidazo[1,5-a]pyrazin-2(3H)-yl 4-(4-chlorophenethyl)piperidine-1-carboxylate] |  | ABHD6 | ABHD6 | FAAH,; also recorded: ABHD12,; also recorded: ABHD6 | FAAH,; also recorded: ABHD12,; also recorded: ABHD4,; also recorded: MAGL,; also recorded: ABHD6
